Where two headings read alike, the source gives them in different places.
How the values were obtained:
CB2 cannabinoid receptor = CB2 cannabinoid receptor (Homo sapiens, UniProt P34972); assay: CB2 receptor binding affinity
Description: (§1) Some disclosed compounds were tested for CB1 and CB2 receptors binding affinity (Table 5). As used herein “binding affinity” is represented by the Ki value. The Ki value is the affinity constant and describes the affinity of the compound for the receptor. […] A detailed description of the methods used to test “binding affinity” of compounds is given in Makriyannis, et al., US 2007, 0135388 and in Papahatjis, et al. J. Med. Chem. (2007) 4048, the content of each of which is hereby incorporated by reference.

CB1 cannabinoid receptor = CB1 cannabinoid receptor (Homo sapiens, UniProt P21554); assay: CB1 receptor binding affinity
CB1 cannabinoid receptor, sequence (P21554 whole entry): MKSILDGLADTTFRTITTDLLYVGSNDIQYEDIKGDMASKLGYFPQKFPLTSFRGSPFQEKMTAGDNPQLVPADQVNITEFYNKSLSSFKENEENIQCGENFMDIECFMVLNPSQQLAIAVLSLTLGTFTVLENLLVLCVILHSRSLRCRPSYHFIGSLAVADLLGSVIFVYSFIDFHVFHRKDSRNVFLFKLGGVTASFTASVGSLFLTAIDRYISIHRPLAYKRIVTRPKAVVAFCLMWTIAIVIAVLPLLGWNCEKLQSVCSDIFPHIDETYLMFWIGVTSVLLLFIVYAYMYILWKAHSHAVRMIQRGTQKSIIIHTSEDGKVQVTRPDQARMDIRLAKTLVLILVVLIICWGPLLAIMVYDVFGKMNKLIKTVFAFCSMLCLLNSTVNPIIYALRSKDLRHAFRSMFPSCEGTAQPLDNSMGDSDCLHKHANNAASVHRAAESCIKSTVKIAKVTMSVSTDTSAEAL
Description: as §1

CB1-KO-HUVEC cells = assay: MMP (matrix metalloproteinase) activity in CB1-KO-HUVEC; assay type: cell-based, human; settings: FIGS. 7 and 8, read-out: EC50 for induction of MMP activity
Text: For aspects disclosed herein, promotion of angiogenic responses under in vitro and ex vivo conditions as well as increasing in MMP (matrix metalloproteinase) activity, correlates well with the ability of anandamide and its synthetic analog (R)-methanandamide to bind to and modulate the putative “non CB1/non CB2 anandamide receptor”. Thus, the compounds described herein where tested using in vitro angiogenesis assays (cord formation by endothelial cells in extracellular matrix mimicking matrigel), ex vivo angiogenesis assay (sprouting or blood capillary formation under ex vivo conditions) as well as for MMP activity in CB1 receptor knock out human umbilical vein endothelial cells (HUVEC) (CB1-KO-HUVEC).
Some disclosed compounds were tested using in vitro angiogenesis assays (cord formation by endothelial cells in extracellular matrix mimicking matrigel, Table 4), ex vivo angiogenesis assay (sprouting or blood capillary formation under ex vivo conditions, Table 4) as well as for MMP (matrix metalloproteinase) activity in CB1 receptor knock out human umbilical vein endothelial cells (HUVEC) (CB1-KO-HUVEC, Figures A and B). Stimulation of angiogenic responses under in vitro and ex vivo conditions as well as increasing in MMP activity, correlates well with the ability of the compound to bind to and modulate the putative “non CB1/non CB2 anandamide receptor”. […] A detailed description of the angiogenesis and MMP activity assays is given in Mukhopadhyay (US 2007, 0244200, and Balas, et al., J. Med. Chem. (2009) ASAP the content of each of which is hereby incorporated by reference.

CB2 cannabinoid receptor, sequence (P34972 whole entry): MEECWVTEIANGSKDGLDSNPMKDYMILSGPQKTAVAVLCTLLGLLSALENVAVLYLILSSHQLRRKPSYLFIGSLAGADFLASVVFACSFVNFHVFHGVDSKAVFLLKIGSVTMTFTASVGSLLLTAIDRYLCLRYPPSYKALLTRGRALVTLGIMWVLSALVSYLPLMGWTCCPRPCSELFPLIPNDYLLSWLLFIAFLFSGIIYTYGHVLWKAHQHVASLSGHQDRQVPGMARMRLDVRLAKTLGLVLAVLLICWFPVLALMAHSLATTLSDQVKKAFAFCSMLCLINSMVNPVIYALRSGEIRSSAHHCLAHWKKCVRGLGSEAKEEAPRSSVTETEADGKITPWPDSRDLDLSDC

SMILES	Ki (CB2 cannabinoid receptor; read-out: CB2 Receptor Ki) [µM]	Ki (CB1 cannabinoid receptor; read-out: CB1 Receptor Ki) [µM]	also measured
C=C(C)[C@@H]1CCC(C)=C[C@H]1c1c(O)cc(O)cc1CC#N	–	–	melting point: 131 to 133 °C
C=C(C)[C@@H]1CCC(C)=C[C@H]1c1c(O)cc(C)cc1O (relative stereo) [Compound 3.1, (−)-2-[3-3,4-trans-p-Menthadien-(1,8)-yl]-5-methylresorcinol]	47.7	16.7	–
C=C(C)[C@@H]1CCC(C)=C[C@H]1c1c(O)cc(CCCCCCC)cc1O (relative stereo) [Compound 3.3, (−)-2-[3-3,4-trans-p-Menthadien-(1,8)-yl]-5-heptylresorcinol]	–	–	Ki (CB2 cannabinoid receptor): 1.42 µM; Ki (CB1 cannabinoid receptor): 0.651 µM
[2H]C([2H])([2H])CCc1cc(O)c([C@@H]2C=C(C)CC[C@H]2C(=C)C)c(O)c1 (relative stereo) [Compound 3.5, (−)-2-[3-3,4-trans-p-Menthadien-(1,8)-yl]-5-[3′-(^2H3)-propyl]resorcinol]	2.58	8.39	–
C=C(C)[C@@H]1CCC(C)=C[C@H]1c1c(O)cc(O)cc1O (relative stereo) [Compound 3.7, (−)-2-[3-3,4-trans-p-Menthadien-(1,8)-yl]-5-hydroxyresorcinol]	41.7	21.5	–
C=C(C)[C@@H]1CCC(C)=C[C@H]1c1c(O)cc(F)cc1O (relative stereo) [Compound 3.8, (−)-2-[3-3,4-trans-p-Menthadien-(1,8)-yl]-5-flouororesorcinol]	43.4	14.6	EC50 (CB1-KO-HUVEC cells; Homo sapiens): 0.05 to 0.07 µM
C=C(C)[C@@H]1CCC(C)=C[C@H]1c1c(O)cc(I)cc1O (relative stereo) [Compound 3.11, (−)-2-[3-3,4-trans-p-Menthadien-(1,8)-yl]-5-iodoresorcinol]	2.19	5.13	melting point: 128 to 130 °C
C=C(C)[C@@H]1CCC(C)=C[C@H]1c1c(O)cc(CBr)cc1O (relative stereo) [Compound 3.12, (−)-2-[3-3,4-trans-p-Menthadien-(1,8)-yl]-5-(bromomethyl)resorcinol]	10.8	2.2	–
C=C(C)[C@@H]1CCC(C)=C[C@H]1c1c(O)cc(CC#N)cc1O (relative stereo) [Compound 3.13, (−)-2-[3-3,4-trans-p-Menthadien-(1,8)-yl]-5-(cyanomethyl)resorcinol]	4.2	1.44	–
C=C(C)[C@@H]1CCC(C)=C[C@H]1c1c(O)cc(CC(=O)OC)cc1O (relative stereo) [Compound 3.14, (−)-2-[3-3,4-trans-p-Menthadien-(1,8)-yl]-5-(2-methoxy-2-oxoethyl)resorcinol]	0.62	2.37	–
C=C(C)[C@@H]1CCC(C)=C[C@H]1c1c(O)cc(CN=[N+]=[N-])cc1O (relative stereo) [Compound 3.15, (−)-2-[3-3,4-trans-p-Menthadien-(1,8)-yl]-5-(azidomethyl)resorcinol]	2.03	3.56	EC50 (CB1-KO-HUVEC cells; Homo sapiens): 0.05 to 0.07 µM
C=C(C)[C@@H]1CCC(C)=C[C@H]1c1c(O)cc(CCCCBr)cc1O (relative stereo) [Compound 3.16, (−)-2-[3-3,4-trans-p-Menthadien-(1,8)-yl]-5-(4-bromobutyl)resorcinol]	–	–	Ki (CB2 cannabinoid receptor): 0.059 µM; Ki (CB1 cannabinoid receptor): 0.192 µM
C=C(C)[C@@H]1CCC(C)=C[C@H]1c1c(C)cc(O)cc1O (relative stereo) [Compound 4.1, (−)-4-[3-3,4-trans-p-Menthadien-(1,8)-yl]-5-methylresorcinol]	31.1	10	–
C=C(C)[C@@H]1CCC(C)=C[C@H]1c1c(O)cc(O)cc1CCCCC (relative stereo) [Compound 4.2, (−)-4-[3-3,4-trans-p-Menthadien-(1,8)-yl]-5-pentylresorcinol, reference compound]	–	–	Ki (CB2 cannabinoid receptor): 9.64 µM; Ki (CB1 cannabinoid receptor): 4.78 µM
C=C(C)[C@@H]1CCC(C)=C[C@H]1c1c(O)cc(O)cc1CCCCCCC (relative stereo) [Compound 4.3, (−)-4-[3-3,4-trans-p-Menthadien-(1,8)-yl]-5-heptylresorcinol]	–	–	Ki (CB2 cannabinoid receptor): 0.398 µM; Ki (CB1 cannabinoid receptor): 0.25 µM
[2H]C([2H])([2H])CCc1cc(O)cc(O)c1[C@@H]1C=C(C)CC[C@H]1C(=C)C (relative stereo) [Compound 4.5, (−)-4-[3-3,4-trans-p-Menthadien-(1,8)-yl]-5-[3′-(^2H3)-propyl]resorcinol]	19	> 20	–
C=C(C)[C@@H]1CCC(C)=C[C@H]1c1c(O)cc(O)cc1F (relative stereo) [Compound 4.8, (−)-4-[3-3,4-trans-p-Menthadien-(1,8)-yl]-5-flouororesorcinol]	7.21	4.15	melting point: 105 to 106 °C
C=C(C)[C@@H]1CCC(C)=C[C@H]1c1c(O)cc(O)cc1Cl (relative stereo) [Compound 4.9, (−)-4-[3-3,4-trans-p-Menthadien-(1,8)-yl]-5-chlororesorcinol]	4.97	3.18	melting point: 101 to 103 °C
C=C(C)[C@@H]1CCC(C)=C[C@H]1c1c(O)cc(O)cc1Br (relative stereo) [Compound 4.10, (−)-4-[3-3,4-trans-p-Menthadien-(1,8)-yl]-5-bromoresorcinol]	13.3	7.46	–
C=C(C)[C@@H]1CCC(C)=C[C@H]1c1c(O)cc(O)cc1I (relative stereo) [Compound 4.11, (−)-4-[3-3,4-trans-p-Menthadien-(1,8)-yl]-5-iodoresorcinol]	10.5	13.1	EC50 (CB1-KO-HUVEC cells; Homo sapiens): 0.05 to 0.07 µM
C=C(C)[C@@H]1CCC(C)=C[C@H]1c1c(O)cc(O)cc1CCCCBr (relative stereo) [Compound 4.16]	5.73	12.5	–
C=C(C)[C@@H]1CCC(C)=C[C@H]1c1c(O)cc(CCCCCCC)c([C@@H]2C=C(C)CC[C@H]2C(=C)C)c1O (relative stereo) [Compound 5.3, 2,4-bis-[3-3,4-trans-p-Menthadien-(1,8)-yl]-5-heptylresorcinol]	> 10	> 10	EC50 (CB1-KO-HUVEC cells; Homo sapiens): 0.05 to 0.07 µM
CCCCC/C=C\C/C=C\C/C=C\C/C=C\CCCC(=O)N[C@H](C)CO [(R)-methanandamide, reference compound]	–	–	EC50 (CB1-KO-HUVEC cells): ~0.042 µM
C=C(C)[C@@H]1CCC(C)=C[C@H]1c1c(O)cc(/C=C\CCCCC)cc1O [Compound 3.6, (−)-2-[3-3,4-trans-p-Menthadien-(1,8)-yl]-5-(1,2-cis-hepten-1-yl)resorcinol]	–	–	EC50 (CB1-KO-HUVEC cells; Homo sapiens): 0.05 to 0.07 µM
CCCCCc1cc(O)c([C@H]2C=C(C)[C@H]3C[C@@H]2C3(C)C)c(O)c1 [Compound 8.2, (+)-2-[(1R, 4S, 5S)-2,6,6-trimethylbicyclo[3.1.1]hept-2-en-4-yl]-5-pentyl-resorcinol]	–	–	EC50 (CB1-KO-HUVEC cells; Homo sapiens): 0.05 to 0.07 µM
CCCCCc1cc(O)cc(O)c1[C@H]1C=C(C)[C@H]2C[C@@H]1C2(C)C [Compound 9.2, (+)-4-[(1R, 4S, 5S)-2,6,6-trimethylbicyclo[3.1.1]hept-2-en-4-yl]-5-pentyl-resorcinol]	4.94	9.25	–
CCCCCc1cc(O)c([C@@H]2C=C(C)[C@@H]3C[C@H]2C3(C)C)c(O)c1 [Compound 11.2, (−)-2-[(1S, 4R, 5R)-2,6,6-trimethylbicyclo[3.1.1]hept-2-en-4-yl]-5-pentyl-resorcinol]	0.565	0.837	–
CCCCCc1cc(O)cc(O)c1[C@@H]1C=C(C)[C@@H]2C[C@H]1C2(C)C [Compound 12.2]	19	10.1	–

Reference: patent publication US20120172339A1, “ANGIOGENIC RESORCINOL DERIVATIVES” (Northeastern University, priority 2009, published 2012)
